Test results taken from patent publication US20040138301A1, “Chemical uncouplers for the treatment of obesity” (priority 2002, published 2004).
Like-named read-outs stand apart in the source and are kept apart here.

Tested on: HEP-G2 cells
Test: cells
Details: for EC50 / Emax / EC (Emax): Homo sapiens; for EC50: HepG2, 3 h
Description: Assay (I): Glucose utilisation in a human hepatocytes cell line (HEP-G2 cells)
The assay measures indirectly the activity of the respiratory chain in HEP-G2 cells by using D-(3-^3H(N))-glucose. The ^3H-proton will first be released during the metabolism of glucose where it will be incorporated into water. The water is thereafter separated from the D-(3-^3H(N))-glucose by evaporation. Finally, the radioactivity in the water is determined using a Topcounter.
HEP-G2 cells obtained from ATCC (Maryland, USA), are cultured in assay medium (MEM medium) with the following addition 1× non-essential amino acids (M7145, 2 mM glutamine, 100 units/ml penicillin and streptomycin, 0.0075% sodium bicarbonate, 1 mM sodium pyrovate and 0.5% BSA (Bovin Serum Albumin, Sigma Missouri, USA)) at 37° C. and 5% CO2. All media are obtained by Gibco (Life Technologies, Maryland, USA) where not otherwise mentioned.
At day zero the cells are harvested using trypsin-EDTA and washed in assay medium using centrifugation. […] The cells are then incubated at 37° C. and 5% CO2 overnight.
The next day the compounds to be tested are diluted in DMSO (Sigma, Missouri, USA) to 100 times final concentration. They are then diluted to a final concentration in assay medium containing 10 μCi/ml D-(3-^3H(N))-glucose (PerkinElmer Life Sciences Inc., Boston, USA). The medium is removed from the cells and 200 μl of the compound dilutions are added in duplicates. The cells are then incubated for another 3 hours at 37° C. and 5% CO2. Finally the cells are lysed by adding 50 μl 10% TCA (trichloroacetic acid). 300 μl of sterile water is then added to the 24-wells that surrounds the StripPlate wells. The plate is sealed with Top-seal-tape (Packard, PerkinElmer Life Sciences Inc., Boston, USA) and the plate is incubated in a heating cupboard at 50° C. to equilibrium the radioactive water formed in the respiratory chain into the water in the 24-well plate by evaporate. The plates incubate for 8 hours where the heating cupboard is turned off. The top seal is removed when the samples have reached room temperature. One ml scintillation liquid (Packard Microscient, PerkinElmer Life Sciences Inc., Boston, USA) is added to all the samples and the radioactivity is determined using a Topcounter (Packard, PerkinElmer Life Sciences Inc., Boston, USA). Non-specific activity is determined by evaporating 200 μl of the dilution medium containing the D-(3-^3H(N))-glucose into 300 μl sterile water, and total radioactivity is determined by counting 5 μl assay medium with 10 μCi/ml D-(3-^3H(N))-glucose.
The cpm (counts per minute) representing the non-specific radioactivity in the D-(3-^3H(N))-glucose is subtracted from all incubated values. Then mean basal value (samples without any compound added) is subtracted from the values of all stimulated samples (samples added different concentrations of the different test compounds). All these calculations are done using GraphPad Prism 3.0 (GraphPad software, Inc.). The maximal stimulation caused by the test compounds is calculated in percentage of maximal stimulation caused by either DNP or FCCP.
When calculating the concentration-response curve the maximal glucose utilisation stimulated by FCCP or DNP (subtracted non-specific and basal values) is converted to 100% and all the other values are expressed in percentage of this value. Using these percentage values and the compound concentration a concentration-response curve is calculated using sigmoidal dose-response (variable slope) equation (all the calculations are done by GraphPad Prism 3.0 (GraphPad software, Inc.));
Y=Bottom+(Top−Bottom)/(1+10^((LogEC50-X)*slope))
X is the logarithm of the molar concentration of the test compound.
Y is the degree of stimulation caused by the compound measured as a percentage of the maximal stimulation achieved by use of FCCP or DNP.
The results achieved with these concentrations are used to determine the slope in this area using the following equation: […]

[1] = read-out: HEP-G2 EC50, HEP-G2 cells, glucose utilisation, 3 hours incubation
[2] = HepG2, read-out: HEP-G2 Emax (% of FCCP), HEP-G2 cells, maximal stimulation relative to FCCP
[3] = HepG2, read-out: HEP-G2 Emax (μM), HEP-G2 cells, concentration at which Emax is achieved (CEmax)
[4] = HepG2, read-out: HEP-G2 Emax (% of FCCP)
[5] = HepG2, read-out: HEP-G2 Emax (μM)

EC50 [1] [µM] | SMILES | Emax [2] [%] | EC (Emax) [3] [µM] | EC50 (read-out: HEP-G2 EC50) [µM] | Emax [4] [%] | EC (Emax) [5] [µM] | HEP-G2 Tox (concentration with sign of toxicity (significant drop in glucose utilisation)) | HEP-G2 Tox (human, 3 h)
290 | COc1ccc(O)c([N+](=O)[O-])c1 [Example 2, 4-Methoxy-2-Nitrophenol] | 35 | 1000 |  |  |  |  | 
270 | CC(=O)c1ccc(O)c([N+](=O)[O-])c1 [Example 3, 4-Hydroxy-3-Nitroacetophenone] | 75 | 1000 |  |  |  |  | 
 | N#Cc1ccc(NC(=O)c2cc(C(F)(F)F)cc(C(F)(F)F)c2)cc1C(F)(F)F [Example 6, N-1-[4-Cyano-3-(Trifluoromethyl)Phenyl]-3,5-Di(Trifluoromethyl)Benzamide] |  |  | 1.6 | 95 | 10 | Tox 0.1 mM | 
 | O=C(Nc1ccc([N+](=O)[O-])cc1Cl)c1ccc2ccccc2c1O [Example 8, 2′-Chloro-1-Hydroxy-4′-Nitro-2-Naphthanilide] |  |  | 12 | 80 | 100 |  | 
6 | CC(C)(C)c1cc(/C=N/C(C#N)=C(\N)C#N)cc(C(C)(C)C)c1O [Example 17, 2-Amino-S-[(3,5-Di-Tert-Butyl-4-Hydroxybenzylidone)-Amino]-But-2-Enedinitrile] | 45 | 30 |  |  |  |  | Tox 0.1 mM
91 | CCc1cc(C#N)cc2c(C)c(C)[nH]c12 [Example 22, 2,3-Dimethyl-5-Cyano-7-Ethylindole] | 100 | 1000 |  |  |  |  | 
 | N#Cc1c(-c2ccc(Cl)cc2)[nH]c(C(F)(F)F)c1Br [Example 23, 4-Bromo-2-(4-Chlorophenyl)-5-Trifluoromethyl-1H-Pyrrole-3-Carbonitrile] |  |  | 1.75 | 117 | 30 |  | 
42 | N#Cc1cc(NC(=O)c2cccc(C(F)(F)F)c2)ccc1Sc1ccccc1 [Example 24, N-(3-Cyano-4-Phenylsulfanyl-Phenyl)-3-Trifluoromethyl-Benzamide] | 65 | 100 |  |  |  |  | 
35.5 | Cc1cc(C)c2[nH]cc(C=C(C#N)C#N)c2c1 [Example 28, 2-(5,7-Dimethyl-1H-Indol-3-Ylmethylene)-Malononitrile] | 35 | 300 |  |  |  |  | 
13 | N#CC(C#N)=Cc1c[nH]c2ccc(Br)cc12 [Example 29, 2-(5-Bromo-1H-Indol-3-Ylmethylene)-Malononitrile] | 65 | 30 |  |  |  |  | 
≥ 300 | Cc1ccc2[nH]cc(C=C(C#N)C#N)c2c1 [Example 31, 2-((5-Methyl-1H-Indol-3-Yl)Methylene)Malononitrile] | 0 |  |  |  |  |  | 
3.35 | CC(C)c1cccc(C(=O)Nc2ccc([N+](=O)[O-])cc2Cl)c1O [Example 38, N-(2-Chloro-4-Nitro-Phenyl)-2-Hydroxy-3-Isopropyl-Benzamide] | 105 | 30 |  |  |  |  | 
6 | Cc1ccc(C(C)C)c(O)c1C(=O)Nc1ccc([N+](=O)[O-])cc1Cl [Example 39, N-(2-Chloro-4-Nitro-Phenyl)-2-Hydroxy-3-Isopropyl-6-Methyl-Benzamide] | 55 | 10 |  |  |  |  | 
4 | Cc1c(Br)cc(C(C)C)c(O)c1C(=O)Nc1ccc([N+](=O)[O-])cc1Cl [Example 41, 3-Bromo-N-(2-Chloro-4-Nitro-Phenyl)-6-Hydroxy-5-Isopropyl-2-Methyl-Benzamide] | 103 | 30 |  |  |  |  | 
0.6 | Cc1cc(C(=O)Nc2ccc([N+](=O)[O-])cc2Cl)c(O)c(C(C)(C)C)c1 [Example 45, 3-Tert-Butyl-N-(2-Chloro-4-Nitro-Phenyl)-2-Hydroxy-5-Methyl-Benzamide] | 96 | 3 |  |  |  |  | 
3 | Cc1ccc(C(C)C)c(C(=O)Nc2ccc([N+](=O)[O-])cc2Cl)c1O [Example 46, N-(2-Chloro-4-Nitro-Phenyl)-2-Hydroxy-6-Isopropyl-3-Methyl-Benzamide] | 103 | 10 |  |  |  |  | 
0.31 | Cc1c(Br)cc(C(C)C)c(O)c1C(=O)Nc1ccc([N+](=O)[O-])cc1C(F)(F)F [Example 57, 3-Bromo-6-Hydroxy-5-Isopropyl-2-Methyl-N-(4-Nitro-2-Trifluoromethyl-Phenyl)-Benzamide] | 90 | 10 |  |  |  |  | 
2.6 | O=C(Nc1cc(C(F)(F)F)cc(C(F)(F)F)c1)c1cc(F)cc(C(F)(F)F)c1 [Example 64, N-(3,5-Bis-Trifluoromethyl-Phenyl)-3-Fluoro-5-Trifluoromethyl-Benzamide] | 105 | 10 |  |  |  |  | 
4.3 | O=C(Nc1cc(C(F)(F)F)cc(C(F)(F)F)c1)c1ccc(C(F)(F)F)c(F)c1 [Example 66, N-(3,5-Bis-Trifluoromethyl-Phenyl)-3-Fluoro-4-Trifluoromethyl-Benzamide] | 95 | 10 |  |  |  |  | 
2.9 | CC(C)(C)c1cc(/C=C(\C#N)c2ccncc2)cc(C(C)(C)C)c1O [Example 78, 3-(3,5-Di-Tert-Butyl-4-Hydroxy-Phenyl)-2-Pyridin-4-Yl-Acrylonitrile] | 80 | 10 |  |  |  |  | 
1 | CC(C)(C)c1cc(/C=C(\C#N)c2cc(C(F)(F)F)cc(C(F)(F)F)c2)cc(C(C)(C)C)c1O [Example 79, 2-(3,5-Bis-Trifluoromethyl-Phenyl)-3-(3,5-Di-Tert-Butyl-4-Hydroxy-Phenyl)-Acrylonitrile] | 80 | 3 |  |  |  |  | Tox 0.3 mM

SMILES | EC50 [1] [µM] | Emax [2] [%] | EC (Emax) [3] [µM] | EC50 (read-out: HEP-G2 EC50) [µM] | Emax [4] [%] | EC (Emax) [5] [µM] | HEP-G2 Tox (concentration with sign of toxicity (significant drop in glucose utilisation)) | HEP-G2 Tox (human, 3 h)
O=C(Nc1ccc(Br)cc1Cl)c1cc(Br)ccc1O [Example 9, N-(2-Chloro-4-Bromophenyl)-5-Bromosalicylanilide] | 2.3 | 100 | 10 |  |  |  |  | 
O=C(Nc1ccc([N+](=O)[O-])c(C(F)(F)F)c1)c1cc(F)cc(C(F)(F)F)c1 [Example 65, 3-Fluoro-N-(4-Nitro-3-Trifluoromethyl-Phenyl)-5-Trifluoromethyl-Benzamide] | 5.3 | 100 | 10 |  |  |  |  | 
O=C(Nc1ccc([N+](=O)[O-])c(C(F)(F)F)c1)c1ccc(F)c(C(F)(F)F)c1 [Example 67, 4-Fluoro-N-(4-Nitro-3-Trifluoromethyl-Phenyl)-3-Trifluoromethyl-Benzamide] | 5.9 | 85 | 30 |  |  |  |  | 
